Converted amounts (≈) assume the structure as drawn. “Also recorded” adds a separate entry of the source. Like-named read-outs stand apart in the source and are kept apart here.
Tests used:
[1] = system: Mycobacterium abscessus; test: MIC against Mycobacterium abscessus; assay type: cell-based; conditions: Mycobacteroides abscessus, 7H9 broth, 7–8 days
Experimental: (§1) 96-well plates were seeded with 5 × 10^5 CFU/mL in a volume of 100 μL of tryptic soy broth (TSB) per well for Staphylococcus aureus assays. Compounds were dissolved in DMSO and serially diluted as 1:2 dilutions to give the final concentration ranging from 0.25 to 128 μg/mL per well. […] Plates were incubated at 37 °C for 18–20 hours and MIC was determined by reading OD625. For M.avium and M.abscessus, 7H9 broth media was used for determination of MICs. The final concentration was 5 × 10^5 CFU/mL in each well. The plate was incubated at 37 °C for 7–8 days and MICs were determined using a Tecan microplate reader (OD625) and resazurin reduction assay.

[2] = system: MRSA USA500; test: MIC against MRSA USA500; assay type: cell-based, Staphylococcus aureus; conditions: TSB, 37 °C, 18–20 hours; for MIC: Staphylococcus aureus, read-out: MIC, Staphylococcus aureus isolate USA500
Experimental: as §1

[3] = system: Enterococcus faecalis; test: MIC against Enterococcus faecalis; assay type: cell-based; conditions: for MIC: read-out: MIC, EF
[4] = system: Pseudomonas aeruginosa; test: MIC against Pseudomonas aeruginosa; assay type: cell-based; conditions: for MIC: read-out: MIC, PA
[5] = system: MRSA USA400; test: MIC against MRSA USA400; assay type: cell-based, Staphylococcus aureus; conditions: TSB, 37 °C, 18–20 hours; for MIC: Staphylococcus aureus, read-out: MIC, Staphylococcus aureus isolate USA400
Experimental: as §1

[6] = system: MRSA USA200; test: MIC against MRSA USA200; assay type: cell-based, Staphylococcus aureus; conditions: TSB, 37 °C, 18–20 hours; for MIC: Staphylococcus aureus, read-out: MIC, Staphylococcus aureus isolate USA200
Experimental: as §1

[7] = system: Mycobacterium avium; test: MIC against Mycobacterium avium; assay type: cell-based; conditions: 7H9 broth, 7–8 days
Experimental: as §1

[8] = system: MRSA USA800; test: MIC against MRSA USA800; assay type: cell-based, Staphylococcus aureus; conditions: TSB, 37 °C, 18–20 hours; for MIC: Staphylococcus aureus, read-out: MIC, Staphylococcus aureus isolate USA800
Experimental: as §1

[9] = system: Gram-positive bacteria; test: MIC against Gram-positive bacteria (summary); assay type: cell-based; conditions: range over all tested Gram-positive bacteria
Experimental: as §1

[10] = system: MRSA USA100; test: MIC against MRSA USA100; assay type: cell-based, Staphylococcus aureus; conditions: TSB, 37 °C, 18–20 hours; for MIC: Staphylococcus aureus, read-out: MIC, Staphylococcus aureus isolate USA100
Experimental: as §1

[11] = system: MRSA USA700; test: MIC against MRSA USA700; assay type: cell-based, Staphylococcus aureus; conditions: TSB, 37 °C, 18–20 hours; for MIC: Staphylococcus aureus, read-out: MIC, Staphylococcus aureus isolate USA700
Experimental: as §1

[12] = system: Methicillin susceptible Staphylococcus aureus; test: MIC against MSSA; assay type: cell-based; conditions: for MIC: MSSA
Experimental: as §1

[13] = system: MRSA USA300; test: MIC against MRSA USA300; assay type: cell-based, Staphylococcus aureus; conditions: TSB, 37 °C, 18–20 hours; for MIC: Staphylococcus aureus, read-out: MIC, Staphylococcus aureus isolate USA300
Experimental: as §1

[14] = system: MRSA USA 200; test: Menaquinone (MK-4) rescue, resazurin reduction assay, USA 200; assay type: cell-based; conditions: Staphylococcus aureus, read-out: MIC in the presence of MK-4
Experimental: Resazurin reduction assay was performed in 96-well plate. MRSA was cultured in TSB until OD625 reached 0.4~0.5 and diluted and plated in 96-well plate. […] The plate was incubated overnight at 37 °C followed by 20 μL of resazurin (0.15 mg/mL) was added to each well. The plate was incubated for 2–4 h and fluorescence was measured at 560 nm excitation/590 nm emission.

[15] = system: MRSA (USA 700); test: Activity against extracellular MRSA in the presence of human MDMs; assay type: cell-based, Staphylococcus aureus; conditions: extracellular MRSA USA700, MIC and MIC/4, 24 h
Experimental: Human monocyte-derived macrophages (MDM) were cultured at a concentration of 1 × 10^6 cells/mL/well in a 24 well plate. MRSA (USA 700) was cultured in TSB (10 mL) until OD625 reached 0.4~0.5 and then centrifuged at 14,000 rpm for 10 min. The pellets were resuspended in 10 mL of DMEM supplemented with 10% human serum (no antibiotics). The bacteria medium was diluted with DMEM containing an inhibitor to obtain 1 × 10^6 CFU/mL and added to human MDMs (MOI = 1) in a 24-well plate. After 24 hour infection at 37 °C, the supernatants were serially diluted for CFU determination (TSA plates).

[16] = system: IL-6; test: IL-6 release from THP-1 macrophages; assay type: cell-based, human; conditions: concentration equal to MIC, 24 h, 37 °C
Experimental: (§2) THP-1 cells were differentiated into macrophages by treatment with PMA (7.5 ng/mL). Levels of the human cytokines (GM-CSF, IFN-γ, IL-1β, IL-2, IL-4, IL-5, IL-6, IL-8, IL-10, TNF-α) released from THP-1 macrophages were determined using a multiplex kit from Life Technologies according to the manufacturer’s instructions. In brief, the 96 well filter plate was pre-wetted, and then 25 μL of the diluted bead suspension was added to each well and washed twice. 100 μL of samples and standards were added to each well. The plate was incubated at room temperature for 2 h on a shaker. Following washing, biotinylated detection antibody was added and incubated for 1 h. After washing, streptavidin-RPE was added to each well and incubated for 0.5 h. The plate was again washed, resuspended in 100 μL of the washing buffer, and read on the Luminex xMAP™ system (Bio-Rad, AtheNA multi-Lyte™, USA). All samples were run in triplicate and standards were run in duplicate.

[17] = system: TNF-α; test: TNF-α release from THP-1 macrophages; assay type: cell-based, human; conditions: concentration equal to MIC, 24 h, 37 °C
Experimental: as §2

[18] = system: IL-1β; test: IL-1β release from THP-1 macrophages; assay type: cell-based, human; conditions: concentration equal to MIC, 24 h, 37 °C
Experimental: as §2

[19] = system: MRSA (USA200); test: Colony morphology / small colony variant formation on TSA; assay type: cell-based, Staphylococcus aureus; conditions: USA200 on TSA, 37 °C, up to 96 h (3a 4–16 μg/mL), 72 h (7c, rifampin)
Experimental: MRSA was streaked and then incubated on tryptic soy agar (TSA) containing 0, 2, 4, 8 or 16 μg/mL of inhibitor 3a or 4 μg/mL of 7C or 0.025 μg/mL of rifampin at 37 °C for 96 h. MK-4 (100 μg/mL) was supplemented in TSA containing 8 μg/mL of 3a for the rescue experiment.

[20] = system: MRSA strains; test: MIC against MRSA strains (summary); assay type: cell-based, Staphylococcus aureus; conditions: range over MRSA strains
Experimental: as §1

[21] = target: MenA; conditions: previously reported; cited from earlier work

Structure (SMILES)	MIC [1] [µg/mL]	MIC [2] [µg/mL]	MIC [3] [µg/mL]	MIC [4] [µg/mL]	MIC [5] [µg/mL]	MIC [6] [µg/mL]	MIC, Staphylococcus aureus isolate USA200 [6] [µg/mL]	MIC [7] [µg/mL]	MIC [8] [µg/mL]	MIC values against all Gram-positive bacteria (range) [9] [µg/mL]	MIC [10] [µg/mL]	MIC [11] [µg/mL]	MIC [12] [µg/mL]	MIC [13] [µg/mL]	increase of antibacterial activity compared to activities with MDMs [15]	increase of antibacterial activity compared to activities without MDMs [15]	IL-6 released from THP-1 macrophages [16]	TNF-α released from THP-1 macrophages [17]	IL-1β released from THP-1 macrophages [18]	M.tb IC50 (inhibition of both M.tb and MenA enzyme activity) [21] [µg/mL]	also measured
COc1ccc2ccc(OCCCCCCCCNCCc3ccc(Br)cc3)cc2c1 [3c]	12 (≈ 24.8 µM)	6 (≈ 12.4 µM)	1 (≈ 2.06 µM)	> 64	4 (≈ 8.26 µM)	2 (≈ 4.13 µM)	2 (≈ 4.13 µM)	4 (≈ 8.26 µM)	6 (≈ 12.4 µM)	0.5 to 16	6 (≈ 12.4 µM)	4 (≈ 8.26 µM)	4 (≈ 8.26 µM)	4 (≈ 8.26 µM)	–	–	–	–	–	–	MIC ([14]; USA 200, 0.05 mg/mL MK-4): 16 µg/mL; MIC ([14]; USA 200, 0.5 mg/mL MK-4): 64 µg/mL
Brc1cc2ccc(OCCCCCCCCN3CCCCC3)cc2cc1OCc1ccccc1 [6b]	–	–	–	–	–	–	4 (≈ 7.63 µM)	–	–	–	–	–	–	–	1.5 – 3 fold	6–12 fold	decreased; also recorded: significantly reduced	decreased	stimulated the release	–	MIC, Staphylococcus aureus isolate USA500 [2]: 12 µg/mL (≈ 22.9 µM); MIC, EF [3]: 2 µg/mL (≈ 3.81 µM); MIC, PA [4]: >128 µg/mL; MIC, Staphylococcus aureus isolate USA400 [5]: 6 µg/mL (≈ 11.4 µM); MIC, MA [7]: 2 µg/mL (≈ 3.81 µM); MIC, Staphylococcus aureus isolate USA800 [8]: 12 µg/mL (≈ 22.9 µM); MIC, Staphylococcus aureus isolate USA100 [10]: 6 µg/mL (≈ 11.4 µM); MIC, Staphylococcus aureus isolate USA700 [11]: 16 µg/mL (≈ 30.5 µM); MIC, MSSA [12]: 4 µg/mL (≈ 7.63 µM); MIC, Staphylococcus aureus isolate USA300 [13]: 6 µg/mL (≈ 11.4 µM)
Fc1ccc(CCNCCCOc2ccc3ccc(OCCCNCCc4ccc(F)cc4)cc3c2)cc1 [7c]	6 (≈ 11.6 µM)	8 (≈ 15.4 µM)	1 (≈ 1.93 µM)	> 128	1 (≈ 1.93 µM)	2 (≈ 3.86 µM)	–	3 (≈ 5.78 µM)	4 (≈ 7.71 µM)	0.5 to 16	3 (≈ 5.78 µM)	2 (≈ 3.86 µM)	2 (≈ 3.86 µM)	3 (≈ 5.78 µM)	1.5 – 3 fold	6–12 fold	decreased; also recorded: significantly reduced	decreased	stimulated the release	–	induction of small colony variants (SCV) [19]: did not induce SCV; MICs against MRSA strains (range) [20]: 1 to 8 µg/mL
C=CCN(C)CCCCCCCCOc1ccc2ccc(OC)cc2c1 [compound 1]	–	–	8 (≈ 22.5 µM)	128 (≈ 360 µM)	16 (≈ 45 µM)	–	–	–	–	–	–	16 (≈ 45 µM)	32 (≈ 90 µM)	16 (≈ 45 µM)	–	–	–	–	–	6	–
COc1ccc2ccc(OCCCCCCCCN3CCCCC3)cc2c1 [compound 2]	–	–	16 (≈ 43.3 µM)	> 64	16 (≈ 43.3 µM)	–	–	–	–	–	–	16 (≈ 43.3 µM)	16 (≈ 43.3 µM)	16 (≈ 43.3 µM)	–	–	–	–	–	5	–

Reference: paper PMC5223195, “Novel long-chain compounds with both immunomodulatory and MenA inhibitory activities against Staphylococcus aureus and its biofilm” (Scientific Reports, 2017)
